Series [1] concerns tumors. The settings on record: clinical results, magnetic resonance imaging; cited from earlier work.
In series [2] the test system is brain metastases. Conditions: clinical results, MRI long after administration; cited from earlier work.
The test system of series [3] is brain metastases. Description: MRI of brain metastases after MGd (FIG. 1A, 1B). Format: in vivo, human. An excerpt: In particular, sections 20, 21, and 22 on the right panel (MGd+standard contrast) show brain metastases not visible in sections 20, 21, and 22 on the left panel (standard Gd contrast).
The test system of series [4] is brain metastases from solid tumors. Conditions: patients with brain metastases from solid tumors receiving WBRT; cited from earlier work.
For series [5], the system named is tumors. Conditions: cited from earlier work.

The text below walks through data of patent US20070219174A1, “METHODS OF TREATING CANCER USING HYPOFRACTIONATED RADIATION AND TEXAPHYRINS” (Pharmacyclics, Inc., priority 2006, published 2007).

With `CC(=O)[O-].CC(=O)[O-].CCc1c(CC)c2cc3nc(cnc4cc(OCCOCCOCCOC)c(OCCOCCOCCOC)cc4ncc4nc(cc1[n-]2)C(CCCO)=C4C)C(C)=C3CCCO.O.[Gd+3]` [Gd-Tex, Gadolinium Texaphyrin], the biolocalization in tumors result in series [1] was “selective biolocolization in tumors”. Moreover, in series [2], the “tumor selectivity, depiction of brain metastases at MRI” value is recorded as “tumor selective”.

Turning to `CC(=O)[O-].CC(=O)[O-].CCc1c(CC)c2cc3nc(cnc4cc(OCCOCCOCCOC)c(OCCOCCOCCOC)cc4ncc4nc(cc1[n-]2)C(CCCO)=C4C)C(C)=C3CCCO.O.[Gd+3]` [MGd, motexafin gadolinium], the “MRI enhancement of brain metastases versus standard Gd contrast” value in series [3] (FIG. 1A, MGd+standard contrast vs standard Gd contrast) was “enhances brain metastases not visible with standard Gd contrast”. Further, the “localization in brain metastases on MRI” value in series [3] (FIG. 1B, brain metastases from NSCLC, post MGd without contrast) was “localization in brain metastases from NSCLC”. For the same compound, the “neurological progression incl. neurologic and neurocognitive function” value in series [4] is “provides benefit to patient's neurological progression”. Also, in series [5] (clinical results), the accumulation in tumors result was “selectively accumulated in tumors” and the well tolerated dose result is “up to 6.3 mg/kg”. Besides, the radiologic response rate result in series [5] (combined with WBRT of 30 Gy in 10 fractions) is recorded as “high radiologic response rate”.
